Assay [1] deals with T1, CK1α (Homo sapiens, UniProt P48729+Q96SW2).
T1 construct: CSNK1A1-HiBit KI HEK293(LgBit) Cells; host or cells: HEK293(LgBit) knock-in cells
In words: HiBiT degradation assay, CK1α, Procedure A. The assay is classed as cell-based. The gist of the method:
(§1)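 Six-hour treatment at 37° C, ten doses between 10 μM and 0.005 μM, then HiBiT lytic luminescence. Fitted DC50 and Ymin.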
Background: The HiBiT peptide binds its large partner to form an active luciferase.

Assay [2] deals with GSPT1 (Homo sapiens, UniProt P15170+Q96SW2). The experiment in a line: HiBiT degradation assay, GSPT1, Procedure A. The assay is classed as cell-based. Set-up: HiBit-GSPT1 KI HEK293(LgBit) Cells; host or cells: HEK293(LgBit) knock-in cells. The gist of the method:
as §1

T1 sequence (P48729 whole entry): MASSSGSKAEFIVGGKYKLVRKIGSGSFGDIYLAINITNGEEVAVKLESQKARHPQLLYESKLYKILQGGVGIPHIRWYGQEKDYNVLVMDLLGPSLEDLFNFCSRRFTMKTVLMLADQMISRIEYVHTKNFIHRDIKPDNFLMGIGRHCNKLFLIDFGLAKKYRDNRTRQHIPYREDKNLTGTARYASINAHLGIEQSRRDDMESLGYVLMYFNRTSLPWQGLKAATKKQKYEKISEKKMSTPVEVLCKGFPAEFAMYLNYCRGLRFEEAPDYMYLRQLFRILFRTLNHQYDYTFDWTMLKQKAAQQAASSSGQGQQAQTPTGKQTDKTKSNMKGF
T1 sequence (Q96SW2 whole entry): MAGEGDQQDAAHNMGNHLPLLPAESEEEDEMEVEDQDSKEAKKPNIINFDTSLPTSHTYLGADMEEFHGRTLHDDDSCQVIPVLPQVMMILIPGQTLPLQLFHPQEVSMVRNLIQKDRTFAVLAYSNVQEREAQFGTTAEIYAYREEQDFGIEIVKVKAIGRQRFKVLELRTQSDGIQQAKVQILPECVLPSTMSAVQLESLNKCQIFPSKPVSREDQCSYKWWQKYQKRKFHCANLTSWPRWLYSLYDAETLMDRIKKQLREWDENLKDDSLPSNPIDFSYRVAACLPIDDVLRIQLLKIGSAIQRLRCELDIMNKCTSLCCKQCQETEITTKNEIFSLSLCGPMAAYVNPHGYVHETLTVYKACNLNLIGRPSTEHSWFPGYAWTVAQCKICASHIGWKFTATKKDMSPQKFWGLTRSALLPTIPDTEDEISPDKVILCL
T1 sequence (Q16531 whole entry partner): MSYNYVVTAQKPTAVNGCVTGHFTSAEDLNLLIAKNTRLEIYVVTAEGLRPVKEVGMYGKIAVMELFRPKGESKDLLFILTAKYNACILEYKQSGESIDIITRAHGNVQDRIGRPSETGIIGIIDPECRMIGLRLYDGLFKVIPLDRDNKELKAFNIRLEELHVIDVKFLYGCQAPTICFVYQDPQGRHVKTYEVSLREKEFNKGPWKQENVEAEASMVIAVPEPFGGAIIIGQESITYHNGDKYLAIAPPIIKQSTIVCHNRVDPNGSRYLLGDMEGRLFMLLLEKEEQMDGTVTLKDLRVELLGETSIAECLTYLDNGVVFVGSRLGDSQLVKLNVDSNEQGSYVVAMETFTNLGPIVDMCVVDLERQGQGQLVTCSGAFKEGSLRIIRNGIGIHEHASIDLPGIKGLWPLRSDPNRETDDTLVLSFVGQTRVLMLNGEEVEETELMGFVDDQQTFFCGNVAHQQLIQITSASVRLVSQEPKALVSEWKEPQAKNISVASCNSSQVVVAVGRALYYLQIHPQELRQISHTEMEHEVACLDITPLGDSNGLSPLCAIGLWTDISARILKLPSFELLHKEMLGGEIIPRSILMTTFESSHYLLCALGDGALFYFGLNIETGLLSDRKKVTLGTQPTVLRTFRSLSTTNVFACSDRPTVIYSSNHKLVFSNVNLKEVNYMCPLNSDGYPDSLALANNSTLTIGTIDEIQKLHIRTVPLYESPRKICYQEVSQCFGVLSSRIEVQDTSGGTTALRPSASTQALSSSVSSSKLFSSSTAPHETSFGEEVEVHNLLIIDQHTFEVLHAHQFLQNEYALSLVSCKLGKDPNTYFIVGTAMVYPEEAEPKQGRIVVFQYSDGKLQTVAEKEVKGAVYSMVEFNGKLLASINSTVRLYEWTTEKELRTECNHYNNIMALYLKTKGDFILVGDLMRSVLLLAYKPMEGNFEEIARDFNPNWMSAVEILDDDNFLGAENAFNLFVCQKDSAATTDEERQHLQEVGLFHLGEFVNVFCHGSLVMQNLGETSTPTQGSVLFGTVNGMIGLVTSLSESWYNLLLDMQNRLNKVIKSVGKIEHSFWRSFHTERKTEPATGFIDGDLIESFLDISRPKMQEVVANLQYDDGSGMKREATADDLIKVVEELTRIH
Sequence of GSPT1 (P15170 whole entry): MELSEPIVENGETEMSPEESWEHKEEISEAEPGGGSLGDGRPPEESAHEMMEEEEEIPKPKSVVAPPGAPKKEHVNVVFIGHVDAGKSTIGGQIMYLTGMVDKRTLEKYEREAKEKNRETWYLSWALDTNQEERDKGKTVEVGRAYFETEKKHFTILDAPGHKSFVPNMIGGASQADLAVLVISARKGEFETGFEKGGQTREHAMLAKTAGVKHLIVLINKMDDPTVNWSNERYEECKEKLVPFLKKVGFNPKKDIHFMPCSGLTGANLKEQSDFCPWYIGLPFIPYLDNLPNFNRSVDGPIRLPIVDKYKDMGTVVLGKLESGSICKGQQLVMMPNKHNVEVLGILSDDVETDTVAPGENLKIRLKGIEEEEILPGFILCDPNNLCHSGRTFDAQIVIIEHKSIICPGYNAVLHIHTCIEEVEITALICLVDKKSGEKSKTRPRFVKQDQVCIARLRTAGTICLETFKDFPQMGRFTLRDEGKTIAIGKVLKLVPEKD
Sequence of GSPT1 (Q96SW2 whole entry): as the sequence (Q96SW2 whole entry) above
Sequence of GSPT1 (Q16531 whole entry partner): as the sequence (Q16531 whole entry partner) above

One may read the DC50 as the midpoint of the concentration-degradation curve. For `Cn1ncc(-c2ccc3c(c2)CN(C2CCC(=O)NC2=O)C3=O)c1-c1ccc(Cl)cc1` (stereo not drawn) [Example 174], in assay [1] (six hours incubation), the “CK1α Ymin” value is recorded as “D (D = >10- 25% remaining)” and the DC50 was under 25 nM. Moreover, in assay [2] (six hours incubation), the DC50 is under 25 nM and the “GSPT1 Ymin” value is listed as “E (E = >25-75% remaining)”.

For the compound `COc1ccc(-c2c(-c3ccc4c(c3)CN(C3CCC(=O)NC3=O)C4=O)cnn2C)cc1O` (stereo not drawn) [Example 222], in assay [1] (six hours incubation), the “CK1α Ymin” value is listed as “C (C = 0-10% remaining)” and the DC50 is under 25 nM. Besides, in assay [2] (six hours incubation), the DC50 is at least 25 nM and the “GSPT1 Ymin” value is on record as “F (F = >75-100% remaining)”.

As for `Cn1cnc(-c2ccc3c(c2)CN(C2CCC(=O)NC2=O)C3=O)c1-c1ccc(F)cc1` (stereo not drawn) [Example 10, 3-(5-(5-(4-Fluorophenyl)-1-methyl-1H-imidazol-4-yl)-1-oxoisoindolin-2-yl)piperidine-2,6-dione], in assay [1] (six hours incubation), the “CK1α Ymin” value is “C (C = 0-10% remaining)” and the DC50 was under 25 nM. For the same compound, in assay [2] (six hours incubation), the DC50 is at least 25 nM and the “GSPT1 Ymin” value is listed as “E (E = >25-75% remaining)”.

For the compound `CC(C)n1ccc(-c2c(-c3ccc4c(c3)CN(C3CCC(=O)NC3=O)C4=O)ncn2C)n1` (stereo not drawn) [Example 487], in assay [1] (six hours), the “CK1α Ymin” value was “E (E = >25-75% remaining)” and the DC50 is under 25 nM. Besides, in assay [2] (six hours), the DC50 is at least 25 nM and the “GSPT1 Ymin” value is reported as “F (F = >75-100% remaining)”.

Take `Cn1nc(-c2ccc3c(c2)CN(C2CCC(=O)NC2=O)C3=O)nc1N1CCC(F)(F)CC1` (stereo not drawn) [Example 613, 3-(5-(5-(4,4-difluoropiperidin-1-yl)-1-methyl-1H-1,2,4-triazol-3-yl)-1-oxoisoindolin-2-yl)piperidine-2,6-dione]: in assay [1] (six hours), the “CK1α Ymin” value was “E (E = >25-75% remaining)” and the half-maximal degradation concentration (DC50) was under 25 nM. In assay [2] (six hours), the DC50 is at least 25 nM and the “GSPT1 Ymin” value is listed as “F (F = >75-100% remaining)”.

With `Cn1cnc(-c2ccc3c(c2)CN(C2CCC(=O)NC2=O)C3=O)c1-c1ccc(C(=O)NCc2ccccc2)c(Cl)c1` (stereo not drawn) [Example 307], in assay [1] (six hours incubation), the “CK1α Ymin” value is recorded as “D (D = >10- 25% remaining)” and the 50% degradation concentration (DC50) is at least 25 nM. Further, in assay [2] (six hours incubation), the DC50 is under 25 nM and the “GSPT1 Ymin” value was “F (F = >75-100% remaining)”.

`O=C1CCC(N2Cc3cc(-c4cncn4-c4ccccc4)ccc3C2=O)C(=O)N1` (stereo not drawn) [Example 205, 3-(1-Oxo-5-(1-phenyl-1H-imidazol-5-yl)isoindolin-2-yl)piperidine-2,6-dione]: in assay [1] (six hours incubation), the “CK1α Ymin” value is “E (E = >25-75% remaining)” and the DC50 is under 25 nM. In addition, in assay [2] (six hours incubation), the DC50 was at least 25 nM and the “GSPT1 Ymin” value was “F (F = >75-100% remaining)”.

Turning to `Cn1ncc(-c2ccc3c(c2)CN(C2CCC(=O)NC2=O)C3=O)c1-c1ccc(Oc2cccnc2)cc1` (stereo not drawn) [Example 133], in assay [1] (six hours incubation), the “CK1α Ymin” value was “E (E = >25-75% remaining)” and the DC50 was at least 25 nM. Besides, in assay [2] (six hours incubation), the DC50 was at least 25 nM and the “GSPT1 Ymin” value is on record as “F (F = >75-100% remaining)”.

`Cn1cnc(-c2ccc3c(c2)CN(C2CCC(=O)NC2=O)C3=O)c1-c1cccc(N2CCCCC2)c1` (stereo not drawn) [Example 296]: in assay [1] (six hours incubation), the “CK1α Ymin” value is reported as “E (E = >25-75% remaining)” and the DC50 is under 25 nM. In addition, in assay [2] (six hours incubation), the 50% degradation concentration (DC50) is at least 25 nM and the “GSPT1 Ymin” value is recorded as “F (F = >75-100% remaining)”.

Consider `CC(C)c1nc(-c2ccc3c(c2)CN(C2CCC(=O)NC2=O)C3=O)c(-c2cncnc2)n1C` (stereo not drawn) [Example 543, 3-[5-(2-isopropyl-1-methyl-5-pyrimidin-5-yl-imidazol-4-yl)-1-oxo-isoindolin-2-yl]piperidine-2,6-dione], for which, in assay [1] (six hours), the “CK1α Ymin” value is given as “C (C = 0-10% remaining)” and the DC50 was under 25 nM. In addition, in assay [2] (six hours), the DC50 is at least 25 nM and the “GSPT1 Ymin” value is listed as “F (F = >75-100% remaining)”.

For the compound `Cn1cnc(-c2ccc3c(c2)CN(C2CCC(=O)NC2=O)C3=O)c1-c1ccc(N2CCCC2)cc1` (stereo not drawn) [Example 288], in assay [1] (six hours incubation), the “CK1α Ymin” value is reported as “C (C = 0-10% remaining)” and the DC50 was under 25 nM. Also, in assay [2] (six hours incubation), the DC50 is under 25 nM and the “GSPT1 Ymin” value is on record as “E (E = >25-75% remaining)”.

As to `Cn1ncc(-c2ccc3c(c2)CN(C2CCC(=O)NC2=O)C3=O)c1-c1cccnc1` (stereo not drawn) [Example 360], in assay [1] (six hours incubation), the “CK1α Ymin” value is on record as “D (D = >10- 25% remaining)” and the DC50 is under 25 nM. Besides, in assay [2] (six hours incubation), the DC50 was at least 25 nM and the “GSPT1 Ymin” value is reported as “F (F = >75-100% remaining)”.

In the case of `Cn1ncc(-c2ccc3c(c2)CN(C2CCC(=O)NC2=O)C3=O)c1-c1ccc(S(=O)(=O)NC2CCCCC2)cc1` (stereo not drawn) [Example 160], in assay [1] (six hours incubation), the “CK1α Ymin” value is recorded as “E (E = >25-75% remaining)” and the DC50 is at least 25 nM. Moreover, in assay [2] (six hours incubation), the half-maximal degradation concentration (DC50) was at least 25 nM and the “GSPT1 Ymin” value was “C (C = 0-10% remaining)”.

`Cn1ncc(-c2ccc3c(c2)CN(C2CCC(=O)NC2=O)C3=O)c1-c1cc2ccccc2[nH]1` (stereo not drawn) [Example 380]: in assay [1] (six hours), the “CK1α Ymin” value is listed as “E (E = >25-75% remaining)” and the DC50 is under 25 nM. In assay [2] (six hours), the half-maximal degradation concentration (DC50) is at least 25 nM and the “GSPT1 Ymin” value is “F (F = >75-100% remaining)”.

For `COc1ccc(C)cc1-c1c(-c2ccc3c(c2)CN(C2CCC(=O)NC2=O)C3=O)cnn1C` (stereo not drawn) [Example 137], in assay [1] (six hours incubation), the “CK1α Ymin” value is “E (E = >25-75% remaining)” and the DC50 is under 25 nM. In assay [2] (six hours incubation), the DC50 is under 25 nM and the “GSPT1 Ymin” value is reported as “F (F = >75-100% remaining)”.

On to `Cn1cnc(-c2ccc3c(c2)CN(C2CCC(=O)NC2=O)C3=O)c1C1CCOC1` (stereo not drawn) [Example 597], for which, in assay [1] (six hours), the “CK1α Ymin” value is “E (E = >25-75% remaining)” and the 50% degradation concentration (DC50) was at least 25 nM. Further, in assay [2] (six hours), the DC50 is at least 25 nM and the “GSPT1 Ymin” value is “F (F = >75-100% remaining)”.

Take `COc1ccc(Cl)c(-c2c(-c3ccc4c(c3)CN(C3CCC(=O)NC3=O)C4=O)ncn2C)c1` (stereo not drawn) [Example 275]: in assay [1] (six hours incubation), the “CK1α Ymin” value is “D (D = >10- 25% remaining)” and the 50% degradation concentration (DC50) is under 25 nM. Also, in assay [2] (six hours incubation), the DC50 is at least 25 nM and the “GSPT1 Ymin” value is recorded as “F (F = >75-100% remaining)”.

Regarding `O=C1CCC(N2Cc3cc(-c4cnn(C(F)(F)F)c4-c4ccccc4)ccc3C2=O)C(=O)N1` (stereo not drawn) [Example 333, 3-(1-oxo-5-(5-phenyl-1-(trifluoromethyl)-1H-pyrazol-4-yl)isoindolin-2-yl)piperidine-2,6-dione], in assay [1] (six hours incubation), the “CK1α Ymin” value is listed as “E (E = >25-75% remaining)” and the DC50 is under 25 nM. Besides, in assay [2] (six hours incubation), the DC50 is at least 25 nM and the “GSPT1 Ymin” value is reported as “E (E = >25-75% remaining)”.

Regarding `Cn1cc(-c2ccc3c(c2)CN(C2CCC(=O)NC2=O)C3=O)nc1-c1ccoc1` (stereo not drawn) [Example 559], in assay [1] (six hours), the “CK1α Ymin” value is listed as “C (C = 0-10% remaining)” and the DC50 was under 25 nM. Also, in assay [2] (six hours), the DC50 is under 25 nM and the “GSPT1 Ymin” value is listed as “F (F = >75-100% remaining)”.

On to `Cn1ncc(-c2ccc3c(c2)CN(C2CCC(=O)NC2=O)C3=O)c1-c1cnn2ccccc12` (stereo not drawn) [Example 383], for which, in assay [1] (six hours), the “CK1α Ymin” value is given as “E (E = >25-75% remaining)” and the DC50 is under 25 nM. In assay [2] (six hours), the DC50 is at least 25 nM and the “GSPT1 Ymin” value is on record as “F (F = >75-100% remaining)”.

On to `Cn1ncc(-c2ccc3c(c2)CN(C2CCC(=O)NC2=O)C3=O)c1-c1ccc(N2CCCCC2)nc1` (stereo not drawn) [Example 465], for which, in assay [1] (six hours), the “CK1α Ymin” value is given as “E (E = >25-75% remaining)” and the DC50 is at least 25 nM. Moreover, in assay [2] (six hours), the half-maximal degradation concentration (DC50) was at least 25 nM and the “GSPT1 Ymin” value is “F (F = >75-100% remaining)”.

The record behind these values is patent publication US20240158370A1, “CK1 alpha AND DUAL CK1 alpha / GSPT1 DEGRADING COMPOUNDS” (Innovo Therapeutics, Inc., priority 2022, published 2024).
